From patent US9486472B2, “Methods for modulating neuronal responses” (UNIVERSITY OF BRITISH COLUMBIA CANADA, priority 2003, dated 2016)

Columns and labels:
transferrin receptor = experiment: Transferrin receptor endocytosis assay; assay type: cell-based, rat; settings: fluorescently-labeled transferrin 30 min; sucrose 0.4 M; R2-CT+Pep-1 one hour prior to and during
Experimental: Transferrin receptor endocytosis assay: To assess the effect of endocytosis inhibitors on transferrin receptor endocytosis, hippocampal neurons were incubated with […] Alexa-A488 conjugated transferrin (Molecular Probes) for 30 min at 37° C. in the presence or absence of endocytosis inhibitors. Internalized receptors were then viewed with a Leica fluorescence microscope.

NMDA receptor channel = target: T1, NMDA receptor channel (Rattus norvegicus, UniProt P35439); experiment: NMDA-evoked [Ca2+]i responses (Fura-2); assay type: cell-based; settings: NMDA 100 μM, 500 ms puffs; sucrose 400 mM in bath
T1 construct: we loaded hippocampal neurons with the intracellular Ca2+ dye, Fura-2; endogenous in cells; host or cells: primary rat hippocampal neurons (E18 Sprague Dawley)
Experimental: (§1) Hippocampi were rapidly removed from embryonic E l 8 Sprague Dawley rats and pooled prior to trituration. Hippocampal cell suspensions were plated onto poly-Dlysine coated culture dishes or glass coverslips and grown in Neurobasal™ media 10 (Invitrogen) for 14 days in vitro (DIV). The media from mature 14 DIV neurons was removed and replaced with 100 μM NMDA plus 10 μM glycine for 1 h at 37° C. prior to restoring neurons to the defined growth media. Twenty four hours after NMDA/glycine application, neurons were processed using cell death assays. NMDA-induced [Ca^2+]i responses were evoked and measured using methods described previously^26.

Akt = Akt phosphorylation at serine 473 (Western blot); assay type: cell-based, rat
Experimental: Immunoprecipitation and Western blotting were carried out essentially as previously reported.^14 Proteins from cerebral cortex, hippocampal slices, cultured hippocampal neurons or transfected HEK293 cells were solubilized in RIPA buffer containing either 1% SDS (plus 5 min boiling; denaturing conditions) or 1% DOC (non-denaturing conditions). For immunoprecipitation, 500 μg of protein from these tissue lysates was incubated with their respective antibodies in 500 μl of RIPA buffer for 4 h at 4° C. Protein A-sepharose was added to the mixture and incubated for an additional 2 h. The complex was isolated by centrifugation and washed three times. Proteins eluted from the sepharose beads were subjected to SDS-PAGE and immunoblotting using their respective antibodies. For sequential re-probing of the same blots, the membranes were stripped of the initial primary and secondary antibodies and subjected to immunoblotting with another antibody. Blots were developed using enhanced chemiluminescence detection (Amersham). Band intensities were quantified using Scion Image PC software.
The serine/threonine kinase Akt/PKB has been implicated in protecting neurons from apoptotic cell death^17 and inhibition of this kinase activity has been suspected to be involved in NMDA receptor-mediated apoptosis^18. […]

hippocampal neurons = experiment: NMDA- or STS-induced apoptosis in cultured hippocampal neurons (Cell Death ELISA, 11-dUTP, PI staining); assay type: cell-based, rat; settings: 100 μM NMDA + 10 μM glycine 1 h, read at 24 h; APV 50 μM; sucrose 0.4 M; myr-Dyn 100 μM; R2-CT 1 μM with Pep-1
Experimental: as §1
Apoptosis quantification: NMDA-induced apoptosis was quantified either using a Cell Death Detection Elisa Plus Kit (Roche Applied Sciences), which is based on the in vitro determination of cytoplasmic histone-associated DNA fragments, or using TdT mediated addition of biotinylated 11-dUTP to the free 3′-OH ends of DNA. Absorbance readings for both assays were carried out using a microplate reader.
Propidium Iodide (PI) staining of nuclei: After the induction of apoptosis, cells were fixed with 4% parafonnaldehyde/4% sucrose for 10 min followed by ice cold acetone for 1 min, and then stained with […] PI in Dulbecco's PBS for 30 min. Stained coverslips were mounted onto glass slides and viewed with a Leica fluorescence microscope to identify condensed nuclei. Cells with condensed nuclei were counted as apoptotic and the percentage of apoptotic cells to the total number of cells was calculated to give a semi-quantitative analysis, expressed as percentage of apoptosis.
A short peptide (YKEGYNVYGIE (SEQ ID NO. 2)) corresponding to amino acid residues from 869 to 879 of the C-terminus of GluR2 (R2-CT) was synthesized and incubated with a carrier protein (Pep-1)23 at a ratio of 1:20 in Dulbecco's modified Eagle's medium
(DMEM, Gibco) at 37° C. in a humidified atmosphere containing 5% CO2 for 30 min to allow the formation of R2-CT/Pep-1 complex. Hippocampal neurons (DW 12-14) were then overlaid with the preformed complex to reach a final R2-CT concentration of 1 μM and further incubated for 1 h before experiments commenced. Receptor Trafficking Assays

[1] = test system: AMPA receptor (wild type GluR2); experiment: Colorimetric cell-ELISA receptor internalization assay, HEK293 cells expressing GluR2; assay type: cell-based, rat; settings: insulin 0.5 μM, 10 min; approximately 25% without insulin
Description: Rat HA-tagged GluR1 and GluR2 receptor subunit cDNAs have been described previously^14. Constructs of HA-GluR2 carboxyl internal deletion or truncation mutants were made by standard PCR methods. The HA-GluR23Y-3A mutant was made using a Quick-Change Site Directed Mutagenesis Kit (Stratagene). HEK293 cells (ATCC) were transfected using the calcium phosphate precipitation method. Thirty six to forty eight hours after transfection, cells were washed with extracellular recording solution (ECS in mM: 140 NaCl, 33 glucose, 25 HEPES, 5.4 KCl, 1.3 CaCl2; pH 7.4, 320 mOsm) and incubated in ECS for at least one hour (serum starvation). […]
The ability of these mutants to undergo both constitutive and regulated endocytosis was assayed as described previously.^14 Surface receptors in live cells were pre-labelled with an anti-HA antibody (or an antibody against the extracellular N-terminal domain of GluR2 in the case of GluR2Δ854) at 4° C. […] Internalised receptors were then visualised by confocal microscopy and quantitated by colorimetric cell-ELISA-based receptor internalization assays (FIG. 6A). […] Transfected cells were pre-labeled with anti-HA antibody and then receptor endocytosis was evaluated under basal conditions (constitutive endocytosis) or following insulin stimulation (0.5 μM, 10 min; regulated endocytosis). […]

Compound | transferrin receptor endocytosis (transferrin receptor) | NMDA-evoked [Ca2+]i responses (NMDA receptor channel) | NMDA-induced reduction in S473 phosphorylated Akt (Akt; hypertonic sucrose) | STS-induced reduction of Akt phosphorylation (Akt; sucrose treatment) | NMDA-induced apoptosis (hippocampal neurons) | cell-surface receptors endocytosed within 30 min [1] [%]
OC[C@H]1O[C@@](CO)(O[C@H]2O[C@H](CO)[C@@H](O)[C@H](O)[C@H]2O)[C@@H](O)[C@@H]1O [sucrose] | eliminated | did not significantly alter NMDA-evoked [Ca^2+]i responses | largely prevented | had no effect on the reduction of Akt phosphorylation following STS treatment | dramatically reduced | 
insulin: human recombinant insulin (Sigma) |  |  |  |  |  | 48
